This is an account of results in patent US20230093099A1, “COMPOUNDS AND METHODS OF TREATING CANCERS” (CULLGEN (SHANGHAI), INC., priority 2019, published 2023).

Each structure is given as a SMILES string. Where only a bound is given, the exact number is not on record here.

The first assay deals with RS4;11 cells. Nature of the assay: Cell viability assay (CellTiter-Glo) in RS4;11 cells. It is filed as cell-based. The note with it: Homo sapiens, 72 h; RS4;11 ALL cells treated for three days; read-out: cell viability inhibition IC50. The method in brief:
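Three-day compound treatment of RS4;11 ALL cells (5000/well, 3-fold dilution series of 8 or 12 points), with IC50 from a nonlinear least-squares fit to CellTiter-Glo viability data.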
On the technique in general: ATP-based viability assays read luminescence as a measure of living cells.
Regarding `CS(=O)(=O)c1ccc(-c2cccc3nc(Nc4ccc(N5CCN(C(=O)CCCCCCCNc6ccc7c(c6)C(=O)N(C6CCC(=O)NC6=O)C7=O)CC5)cc4)nn23)cc1` (stereo not drawn) [JA-203], the IC50 (usually the concentration needed to halve the response being measured) is less than 100 nM.
Consider `CS(=O)(=O)c1ccc(-c2cccc3nc(Nc4ccc(N5CCN(C(=O)CCCCCCNc6ccc7c(c6)C(=O)N(C6CCC(=O)NC6=O)C7=O)CC5)cc4)nn23)cc1` (stereo not drawn) [JA-199, 2-(2,6-dioxopiperidin-3-yl)-5-((7-(4-(4-((5-(4-(methylsulfonyl)phenyl)-[1,2,4]triazolo[1,5-a]pyridin-2-yl)amino)phenyl)piperazin-1-yl)-7-oxoheptyl)amino)isoindoline-1,3-dione], for which the half-maximal inhibitory concentration (IC50) is less than 100 nM.

Staying with this assay, now noted: Homo sapiens, 72 h; RS4;11 cells; cell viability, 3 days, CellTiter-Glo; read-out: IC50.
Regarding `CS(=O)(=O)c1ccc(-c2cccc3nc(Nc4ccc(N5CCN(C(=O)CCCCCCCNc6ccc7c(c6)C(=O)N(C6CCC(=O)NC6=O)C7=O)CC5)cc4)nn23)cc1` (stereo not drawn) [JA-203], the IC50 came to 22.8 nM.
For the molecule `Cc1ncsc1-c1ccc(CNC(=O)[C@@H]2C[C@@H](O)CN2C(=O)[C@@H](NC(=O)CCNC(=O)CN2CCC(n3cc(-c4cnc5cccc(-c6cc(F)c(CN7CCOCC7)c(F)c6)c5n4)cn3)CC2)C(C)(C)C)cc1` [JA-155, (2S,4R)-1-((S)-2-(3-(2-(4-(4-(8-(3,5-Difluoro-4-(morpholinomethyl)phenyl)quinoxalin-2-yl)-1H-pyrazol-1-yl)piperidin-1-yl)acetamido)propanamido)-3,3-dimethylbutanoyl)-4-hydroxy-N-(4-(4-methylthiazol-5-yl)benzyl)pyrrolidine-2-carboxamide], the IC50 is greater than 10000 nM.
Consider `CS(=O)(=O)c1ccc(-c2cccc3nc(Nc4ccc(N5CCN(C(=O)CCCCCCNc6ccc7c(c6)C(=O)N(C6CCC(=O)NC6=O)C7=O)CC5)cc4)nn23)cc1` (stereo not drawn) [JA-199, 2-(2,6-dioxopiperidin-3-yl)-5-((7-(4-(4-((5-(4-(methylsulfonyl)phenyl)-[1,2,4]triazolo[1,5-a]pyridin-2-yl)amino)phenyl)piperazin-1-yl)-7-oxoheptyl)amino)isoindoline-1,3-dione], for which the IC50 worked out at 32.5 nM.
Turning to `O=C(CN1CCC(n2cc(-c3cnc4cccc(-c5cc(F)c(CN6CCOCC6)c(F)c5)c4n3)cn2)CC1)NCCCCCCCNc1cccc2c1C(=O)N(C1CCC(=O)NC1=O)C2=O` (stereo not drawn) [JA-148, 2-(4-(4-(8-(3,5-Difluoro-4-(morpholinomethyl)phenyl)quinoxalin-2-yl)-1H-pyrazol-1-yl)piperidin-1-yl)-N-(7-((2-(2,6-dioxopiperidin-3-yl)-1,3-dioxoisoindolin-4-yl)amino)heptyl)acetamide], the IC50 is greater than 10000 nM.
As to `Cc1cnc(Nc2ccc(N3CCN(C(=O)CCCCNc4ccc5c(c4)C(=O)N(C4CCC(=O)NC4=O)C5=O)CC3)cc2)nc1Nc1cccc(S(=O)(=O)NC(C)(C)C)c1` (stereo not drawn) [JA-228, N-(tert-butyl)-3-((2-((4-(4-(5-((2-(2,6-dioxopiperidin-3-yl)-1,3-dioxoisoindolin-5-yl)amino)pentanoyl)piperazin-1-yl)phenyl)amino)-5-methylpyrimidin-4-yl)amino)benzenesulfonamide], the IC50 was 2010 nM.
`O=C1CCC(n2c(=O)n(CCCCCCC(=O)N3CCC(n4cc(-c5cnc6cccc(-c7cc(F)c(CN8CCOCC8)c(F)c7)c6n5)cn4)CC3)c3ccccc32)C(=O)N1` (stereo not drawn) [JA-279, 3-(3-(7-(4-(4-(8-(3,5-Difluoro-4-(morpholinomethyl)phenyl)quinoxalin-2-yl)-1H-pyrazol-1-yl)piperidin-1-yl)-7-oxoheptyl)-2-oxo-2,3-dihydro-1H-benzo[d]imidazol-1-yl)piperidine-2,6-dione]: the IC50 was greater than 500 nM.
For the molecule `O=C1CCC(N2Cc3cc(OCCCCCC(=O)N4CCC(n5cc(-c6cnc7cccc(-c8cc(F)c(CN9CCOCC9)c(F)c8)c7n6)cn5)CC4)ccc3C2=O)C(=O)N1` (stereo not drawn) [JA-263, 3-(5-((6-(4-(4-(8-(3,5-difluoro-4-(morpholinomethyl)phenyl)quinoxalin-2-yl)-1H-pyrazol-1-yl)piperidin-1-yl)-6-oxohexyl)oxy)-1-oxoisoindolin-2-yl)piperidine-2,6-dione], the 50% inhibitory concentration (IC50) worked out at 3.6 nM.
For `CS(=O)(=O)c1ccc(-c2cccc3nc(Nc4ccc(N5CCN(CC(=O)NCCOCCNc6ccc7c(c6)C(=O)N(C6CCC(=O)NC6=O)C7=O)CC5)cc4)nn23)cc1` (stereo not drawn) [JA-212, N-(2-(2-((2-(2,6-Dioxopiperidin-3-yl)-1,3-dioxoisoindolin-5-yl)amino)ethoxy)ethyl)-2-(4-(4-((5-(4-(methylsulfonyl)phenyl)-[1,2,4]triazolo[1,5-a]pyridin-2-yl)amino)phenyl)piperazin-1-yl)acetamide], the IC50 is greater than 10000 nM.
With `CS(=O)(=O)c1ccc(-c2cccc3nc(Nc4ccc(N5CCN(C(=O)CNc6ccc7c(c6)C(=O)N(C6CCC(=O)NC6=O)C7=O)CC5)cc4)nn23)cc1` (stereo not drawn) [JA-194, 2-(2,6-Dioxopiperidin-3-yl)-5-((2-(4-(4-((5-(4-(methylsulfonyl)phenyl)-[1,2,4]triazolo[1,5-a]pyridin-2-yl)amino)phenyl)piperazin-1-yl)-2-oxoethyl)amino)isoindoline-1,3-dione], the IC50 was greater than 10000 nM.
Turning to `O=C(CN1CCC(n2cc(-c3cnc4cccc(-c5cc(F)c(CN6CCOCC6)c(F)c5)c4n3)cn2)CC1)NCCOCCOCCOCCNc1cccc2c1C(=O)N(C1CCC(=O)NC1=O)C2=O` (stereo not drawn) [JA-141, 2-[4-[4-[8-[3,5-Difluoro-4-(morpholinomethyl)phenyl]quinoxalin-2-yl]pyrazol-1-yl]-1-piperidyl]-N-[2-[2-[2-[2-[[2-(2,6-dioxo-3-piperidyl)-1,3-dioxo-isoindolin-4-yl]amino]ethoxy]ethoxy]ethoxy]ethyl]acetamide], the IC50 is greater than 10000 nM.
As to `CS(=O)(=O)c1ccc(-c2cccc3nc(Nc4ccc(N5CCN(CC(=O)NCCOCCOCCNc6ccc7c(c6)C(=O)N(C6CCC(=O)NC6=O)C7=O)CC5)cc4)nn23)cc1` (stereo not drawn) [JA-208, N-(2-(2-(2-((2-(2,6-Dioxopiperidin-3-yl)-1,3-dioxoisoindolin-5-yl)amino)ethoxy)ethoxy)ethyl)-2-(4-(4-((5-(4-(methylsulfonyl)phenyl)-[1,2,4]triazolo[1,5-a]pyridin-2-yl)amino)phenyl)piperazin-1-yl)acetamide], the IC50 is 3350 nM.
With `Cc1cnc(Nc2ccc(N3CCN(CC(=O)NCCCCCCCCCCC(=O)N[C@H](C(=O)N4C[C@H](O)C[C@H]4C(=O)NCc4ccc(-c5scnc5C)cc4)C(C)(C)C)CC3)cc2)nc1Nc1cccc(S(=O)(=O)NC(C)(C)C)c1` [JA-106, (2S,4R)-1-((S)-2-(11-(2-(4-(4-((4-((3-(N-(tert-Butyl)sulfamoyl)phenyl)amino)-5-methylpyrimidin-2-yl)amino)phenyl)piperazin-1-yl)acetamido)undecanamido)-3,3-dimethylbutanoyl)-4-hydroxy-N-(4-(4-methylthiazol-5-yl)benzyl)pyrrolidine-2-carboxamide], the half-maximal inhibitory concentration (IC50) was greater than 10000 nM.
For the molecule `Cn1c(=O)n(C2CCC(=O)NC2=O)c2ccc(NCCCCC(=O)N3CCC(n4cc(-c5cnc6cccc(-c7cc(F)c(CN8CCOCC8)c(F)c7)c6n5)cn4)CC3)cc21` (stereo not drawn) [JA-287, 3-(5-((5-(4-(4-(8-(3,5-Difluoro-4-(morpholinomethyl)phenyl)quinoxalin-2-yl)-1H-pyrazol-1-yl)piperidin-1-yl)-5-oxopentyl)amino)-3-methyl-2-oxo-2,3-dihydro-1H-benzo[d]imidazol-1-yl)piperidine-2,6-dione], the half-maximal inhibitory concentration (IC50) was greater than 500 nM.
On to `Cc1cnc(Nc2ccc(N3CCN(C(=O)COCCOCCOCC(=O)N[C@H](C(=O)N4C[C@H](O)C[C@H]4C(=O)NCc4ccc(-c5scnc5C)cc4)C(C)(C)C)CC3)cc2)nc1Nc1cccc(S(=O)(=O)NC(C)(C)C)c1` [JA-108, (2S,4R)-1-((S)-2-(tert-Butyl)-14-(4-(4-((4-((3-(N-(tert-butyl)sulfamoyl)phenyl)amino)-5-methylpyrimidin-2-yl)amino)phenyl)piperazin-1-yl)-4,14-dioxo-6,9,12-trioxa-3-azatetradecanoyl)-4-hydroxy-N-(4-(4-methylthiazol-5-yl)benzyl)pyrrolidine-2-carboxamide], for which the concentration for half-maximal inhibition (IC50) is greater than 10000 nM.
With `Cc1ncsc1-c1ccc(CNC(=O)[C@@H]2C[C@@H](O)CN2C(=O)[C@@H](NC(=O)CCCCCNC(=O)CN2CCN(c3ccc(Nc4nc5cccc(-c6ccc(S(C)(=O)=O)cc6)n5n4)cc3)CC2)C(C)(C)C)cc1` [JA-122, (2S,4R)-1-((S)-3,3-Dimethyl-2-(6-(2-(4-(4-((5-(4-(methylsulfonyl)phenyl)-[1,2,4]triazolo[1,5-a]pyridin-2-yl)amino)phenyl)piperazin-1-yl)acetamido)hexanamido)butanoyl)-4-hydroxy-N-(4-(4-methylthiazol-5-yl)benzyl)pyrrolidine-2-carboxamide], the IC50 was greater than 10000 nM.
On to `Cc1cnc(Nc2ccc(N3CCN(CC(=O)NCCCCCNc4ccc5c(c4)C(=O)N(C4CCC(=O)NC4=O)C5=O)CC3)cc2)nc1Nc1cccc(S(=O)(=O)NC(C)(C)C)c1` (stereo not drawn) [JA-244, 2-(4-(4-((4-((3-(N-(tert-butyl)sulfamoyl)phenyl)amino)-5-methylpyrimidin-2-yl)amino)phenyl)piperazin-1-yl)-N-(5-((2-(2,6-dioxopiperidin-3-yl)-1,3-dioxoisoindolin-5-yl)amino)pentyl)acetamide], for which the IC50 is greater than 10000 nM.
Still for that read-out and setting: the figure for `Cc1cnc(Nc2ccc(N3CCN(C(=O)CCOCCOCCOCCOCCOCCNc4cccc5c4C(=O)N(C4CCC(=O)NC4=O)C5=O)CC3)cc2)nc1Nc1cccc(S(=O)(=O)NC(C)(C)C)c1` (stereo not drawn) [JA-021] is 940 nM; for `O=C1CCC(N2C(=O)c3cccc(NCCCCC(=O)N4CCC(n5cc(-c6cnc7cccc(-c8cc(F)c(CN9CCOCC9)c(F)c8)c7n6)cn5)CC4)c3C2=O)C(=O)N1` (stereo not drawn) [JA-003, 4-[[5-[4-[4-[8-[3,5-Difluoro-4-(morpholinomethyl)phenyl]quinoxalin-2-yl]pyrazol-1-yl]-1-piperidyl]-5-oxo-pentyl]amino]-2-(2,6-dioxo-3-piperidyl)isoindoline-1,3-dione] it is 6590 nM.
The same measure, in the same setting: the figure for `Cc1cnc(Nc2ccc(N3CCN(C(=O)COCCOCCOCCOCCOCC(=O)N[C@H](C(=O)N4C[C@H](O)C[C@H]4C(=O)NCc4ccc(-c5scnc5C)cc4)C(C)(C)C)CC3)cc2)nc1Nc1cccc(S(=O)(=O)NC(C)(C)C)c1` [JA-036, (2S,4R)-1-((S)-2-(tert-Butyl)-20-(4-(4-((4-((3-(N-(tert-butyl)sulfamoyl)phenyl)amino)-5-methylpyrimidin-2-yl)amino)phenyl)piperazin-1-yl)-4,20-dioxo-6,9,12,15,18-pentaoxa-3-azaicosanoyl)-4-hydroxy-N-(4-(4-methylthiazol-5-yl)benzyl)pyrrolidine-2-carboxamide] is greater than 10000 nM.
